Measurements as given in PMC4585737, “Lipoproteins/peptides are sepsis-inducing toxins from bacteria that can be neutralized by synthetic anti-endotoxin peptides” (Scientific Reports, 2015).
“Also recorded” adds a separate entry of the source.

Assays:
[1] = system: FSL-1; experiment: Isothermal titration calorimetry of peptide into FSL-1; type: binding; details: LP 0.05 mM, peptide 1 mM titrated in 3 μl portions every 5 min, 37 °C
Description: Microcalorimetric measurements of peptide binding to selected LP, i.e., Pam3CSK4 and FSL-1 were performed on a MCS isothermal titration calorimeter (Microcal, Freiburg, Germany) at 37 °C, as previously described. The LP containing solutions (0.05 mM, prepared as described above) were dispensed into the microcalorimetric cell (volume 1.5 ml), and the peptide solutions (1 mM) were loaded into the syringe compartment (volume 0.1 ml). After temperature equilibration, the peptide was titrated in 3 μl aliquots every 5 min into the LP-containing cell under constant stirring and the heat of interaction after each injection measured by the MCS instrument was plotted versus time.

[2] = system: Balb/C mice; experiment: Lethal toxemia in galactosamine-sensitized mice; type: in vivo, mouse; details: 200 μg/mouse peptide i.p. after 4 μg FSL-1 + D-galactosamine 18 mg/mouse; n = 6; up to 4 days; Kaplan-Meier, p < 0.05
Description: Seven-week-old female SPF-free Balb/C mice of 20 g of body weight, approximately, were purchased from Harlan Spain (Harlan Interfauna Iberica S.A., Barcelona, Spain) and randomly distributed in experimental groups (at least 4 animals per group except for the determination of lethal dose (n = 3)). Sample size was calculated based on previous results with the same animal model. Animals were housed in individually ventilated cages (5 mice per cage) bedded with hardwood bedding. Mice were provided ad libitum access to feed and water and lighting was adjusted to a 14-hour light/10-hour dark cycle. During the experiments, the condition of the animals was monitored daily every 4 hours and animals displaying persistent motor ataxia and hunched posture were euthanized.
To determine the lethal dose of FSL-1 in mice, the method of Galanos and collaborators[48] was followed with some modifications. Briefly, animals were intraperitoneally inoculated with increasing amounts of FSL-1 (50 ng, 500 ng, 5 μg and 50 μg) supplemented with 18 mg of D-galactosamine in a final volume of 200 μl of pyrogen-free saline. Galactosamine is known to sensitize mice to pro-inflammatory compounds such as LPS, thus making it possible to use lower amounts of the stimulatory drug[46]. The ability of Aspidasept® to protect mice from FSL-1 dependent lethal toxemia was assessed by co-administering FSL-1 (4 μg/mouse) with D-galactosamine (18 mg/mouse) intraperitoneally.
Results were globally analyzed by means of a Kaplan-Meier survival analysis (SPSS 15.0). When the survival plots were parallel, the data were compared by the log-rank test, whereas the Breslow-Gehan-Wilcoxon test was applied when the plots intersected.

[3] = system: human macrophages; experiment: TNFα production in human macrophages stimulated by LPS or LP, and its inhibition by SALP; type: cell-based
Description: In some stimulation experiments, also macrophages were used. Briefly, MNC were isolated from peripheral blood from healthy donors by the Hypaque-Ficoll gradient method. To differentiate the monocytes to macrophages cells were cultivated in Teflon bags in the presence of 2 ng/ml M-CSF in RPMI 1640 medium (endotoxin <0.01 EU/ml; Biochrom, Berlin, Germany) containing 100 U/ml penicillin, 100 μg/ml streptomycin, 2 mM L-glutamine and 4% heat-inactivated human serum type AB at 37 °C and 6% CO2. On day 6, cells were washed with PBS, detached by Trypsin-EDTA treatment and seeded at 1 × 10^6 cells/ml in complete medium in 96-well tissue culture dishes (Nunc, Wiesbaden, Germany). After stimulation of cells with various LP for 4 h, cell-free supernatants of duplicate samples were collected, pooled and stored at −20 °C until determination of cytokine content. Data shown are representative of at least three independent experiments.
LP preparations were pre-warmed for 30 min at 37 °C, and added to the cultures at 20 μl per well. In inhibition experiments, different SALP were added directly after LPS/LP/LTA administration. […]

[4] = system: human MNCs; details: even at [LPS]:[Aspidasept] weight ratios as low as 1:1; cited from earlier work
Text: In this section, we first present in vitro data on the production of pro-inflammatory cytokines by human cells in response to LP or LTA from different origin and its neutralization by SALP. Then, we used a mouse model of acute toxemia to characterize the in vivo expression of those cytokines and to study if SALP can protect animals against lethal LP-induced sepsis.

[5] = system: human mononuclear cells; experiment: TNFα production in human mononuclear cells (MNC) stimulated by LP, LTA or PGN, and its inhibition by SALP; type: cell-based
Description: The stimulation of MNC was performed as described previously. Briefly, MNC were isolated from heparinized blood of healthy donors by the Hypaque-Ficoll density gradient method. The cell number was equilibrated at 5 × 10^6 cells/ml RPMI 1640 containing 2 mM L-glutamine, 100 U/ml penicillin and 100 μg/ml streptomycin. For stimulation, 200 μl/well MNC were transferred into 96-well culture plates. The stimuli were serially diluted in RPMI 1640 and added to the cultures at 20 μl per well. The cultures were incubated for 4 h at 37 °C under 5% CO2. Cell-free supernatants were collected after centrifugation of the culture plates for 10 min at 400 × g and stored at −20 °C until the determination of the cytokine content. Immunological determination of TNFα in the cell supernatant was performed in a sandwich-ELISA as described earlier (OptEIA; BD, Heidelberg, Germany). TNFα was determined and measured following manufacturer’s instructions and results are the average of two assays.
LP preparations were pre-warmed for 30 min at 37 °C, and added to the cultures at 20 μl per well. In inhibition experiments, different SALP were added directly after LPS/LP/LTA administration.
Since the data of the stimulation of human MNC by the bacterial and synthetic LP was taken over a time period of more than 6 years, the TNFα production lead to considerable variations due to different batches of LP and of Pep19-2.5, and in particular due to variations resulting from blood samples of different donors. Because the main emphasis laid here is the efficiency of the peptide to inhibit the cytokine production, most figures describe the inhibition efficieny of the peptide in %, by presenting the means ± SEM of at least 3 independent experiments. The absolute values of the cytokine production, where of note, is given separately in the text.

GCKKYRRFRWKFKGKFWFWG [Aspidasept®, synthetic anti-LPS peptide (SALP), 20′mer, anti-septic therapeutic drug candidate]
ITC: FSL-1:peptide interaction [1]: exothermic reaction with saturation kinetics; also recorded: considerable reaction with saturation characteristics | survival of mice challenged with FSL-1 [2]: significant survival benefit | inhibition of TNFα production ([3]; stimulus LP SitC 1000 and 100 ng/ml, 10:1 excess of peptide, three independent measurements): strong inhibition | inhibition of LP-dependent TNFα secretion ([3]; stimulus LP SitC, all tested concentrations, [LP]:[Pep] 1:10 and 1:100 weight%): almost totally abrogated | inhibition of LPS-induced cytokine expression in human MNCs [4]: efficiently inhibits | inhibition of TNFα induction by LP, LTA and PGN ([5]; 10:1 excess weight ratio of the peptide): takes place in most cases | cytokine expression induced by LP, LTA and PGN in presence of peptide ([5]; 100:1 weight ratio of the peptide): no longer any detectable cytokine expression | reduction of FSL-1-induced TNFα secretion ([5]; stimulus FSL-1 100 and 10 ng/ml, 10-fold (10:1 weight%) excess of peptide): considerable reduction; also recorded: good degree of inhibition | reduction of FSL-1-induced TNFα secretion ([5]; stimulus FSL-1, 100:1 excess of peptide): nearly completely abolished | inhibition of LP dependent TNFα production ([5]; stimulus LP OspA and OspC, 10000 and 1000 ng/ml, peptide:LP ratio 10:1): inhibited | LP dependent TNFα production in presence of peptide ([5]; stimulus LP OspA and OspC, peptide:LP 100:1 concentration ratio, data not shown): undetectable levels | reduction of LTA-dependent TNFα response ([5]; stimulus LTA from S. aureus SA113Δlgt, 10000 and 1000 ng/ml, 10-fold excess of peptide): effectively reduced | inhibition of pro-inflammatory activity of MALP-2 ([5]; stimulus MALP-2, 100:1 weight% excess of the peptide, data not shown): nearly complete inhibition | inhibition of PGN-induced TNFα response ([5]; stimulus PGN from S. aureus SA113Δlgt, 10000 and 1000 ng/ml, 10-fold excess of peptide): totally inhibited | inhibition of Pam3CSK4-induced cytokine (TNFα) production ([5]; stimulus Pam3CSK4 1000, 100, 10 ng/ml, [LP]:[Pep] up to 1:100 weight%): only a minor inhibitory effect; also recorded: no significant influence; also recorded: no or only a small inhibition | inhibition of LTA-induced TNFα ([5]; stimulus commercial LTA from B. subtilis, 10:1 weight% excess of peptide): complete inhibition | inhibition of LTA-induced cytokine ([5]; stimulus commercial LTA from S. aureus, data not shown): inhibited
